# According to ChEMBL document CHEMBL1201862, “PubChem BioAssay data set” (2004):
#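 The compound was tested at five concentrations on cells cultured in 96-well plates, with a 48-hour exposure period. GI50 = concentration required for 50% inhibition of growth.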 The source made the active and inactive calls. No stated cut-off is given here; in the data, active = GI50 up to about 1.1 µM and inactive = higher.
# Legend:
# Experiment in all cases: DTP human tumour cell line panel, 48 h
# 786-0 = system: 786-0
# A549 = system: A549
# ACHN = system: ACHN
# CAKI-1 = system: CAKI-1
# CCRF-CEM = system: CCRF-CEM
# COLO 205 = system: COLO 205
# DLD-1 = system: DLD-1
# DMS-114 = system: DMS-114
# DMS-273 = system: DMS-273
# EKVX = system: EKVX
# HCC 2998 = system: HCC 2998
# HCT-116 = system: HCT-116
# HCT-15 = system: HCT-15
# HL-60 = system: HL-60
# HOP-18 = system: HOP-18
# HOP-62 = system: HOP-62
# HOP-92 = system: HOP-92
# HT-29 = system: HT-29
# IGROV-1 = system: IGROV-1
# K562 = system: K562
# KM-20L2 = system: KM-20L2
# KM12 = system: KM12
# LOX IMVI = system: LOX IMVI
# LXFL 529 = system: LXFL 529
# M14 = system: M14
# M19-MEL = system: M19-MEL
# MOLT-4 = system: MOLT-4
# Malme-3M = system: Malme-3M
# NCI-H226 = system: NCI-H226
# NCI-H23 = system: NCI-H23
# NCI-H460 = system: NCI-H460
# NCI-H522 = system: NCI-H522
# OVCAR-3 = system: OVCAR-3
# OVCAR-4 = system: OVCAR-4
# OVCAR-5 = system: OVCAR-5
# OVCAR-8 = system: OVCAR-8
# RPMI-8226 = system: RPMI-8226
# RXF 631 = system: RXF 631
# SF-295 = system: SF-295
# SF-539 = system: SF-539
# SK-MEL-28 = system: SK-MEL-28
# SK-MEL-2 = system: SK-MEL-2
# SK-MEL-5 = system: SK-MEL-5
# SK-OV-3 = system: SK-OV-3
# SN12C = system: SN12C
# SNB-19 = system: SNB-19
# SNB-75 = system: SNB-75
# SNB-78 = system: SNB-78
# SR = system: SR
# SW-620 = system: SW-620
# TK-10 = system: TK-10
# U-251 = system: U-251
# UACC-257 = system: UACC-257
# UACC-62 = system: UACC-62
# UO-31 = system: UO-31
# XF498 = system: XF498
structure (smiles),measurement,setting,value
Cc1ccccc1-c1cc(=O)c2cc(C)c(C)c(C(=O)O)c2o1,GI50,786-0,> 100 µM (inactive)
same,GI50,A549,> 100 µM (inactive)
same,GI50,ACHN,> 100 µM (inactive)
same,GI50,CAKI-1,> 100 µM (inactive)
same,GI50,CCRF-CEM,> 100 µM (inactive)
same,GI50,COLO 205,> 100 µM (inactive)
same,GI50,DLD-1,> 100 µM (inactive)
same,GI50,DMS-114,> 100 µM (inactive)
same,GI50,DMS-273,> 100 µM (inactive)
same,GI50,EKVX,> 100 µM (inactive)
same,GI50,HCC 2998,> 100 µM (inactive)
same,GI50,HCT-116,> 100 µM (inactive)
same,GI50,HCT-15,> 100 µM
same,GI50,HL-60,> 100 µM (inactive)
same,GI50,HOP-18,> 100 µM (inactive)
same,GI50,HOP-62,> 100 µM (inactive)
same,GI50,HOP-92,> 100 µM (inactive)
same,GI50,HT-29,> 100 µM (inactive)
same,GI50,IGROV-1,> 100 µM (inactive)
same,GI50,K562,> 100 µM (inactive)
same,GI50,KM-20L2,> 100 µM (inactive)
same,GI50,KM12,> 100 µM (inactive)
same,GI50,LOX IMVI,> 100 µM (inactive)
same,GI50,LXFL 529,> 100 µM (inactive)
same,GI50,M14,> 100 µM (inactive)
same,GI50,M19-MEL,> 100 µM (inactive)
same,GI50,MOLT-4,> 100 µM (inactive)
same,GI50,Malme-3M,> 100 µM (inactive)
same,GI50,NCI-H226,> 100 µM (inactive)
same,GI50,NCI-H23,> 100 µM (inactive)
same,GI50,NCI-H460,> 100 µM (inactive)
same,GI50,NCI-H522,> 100 µM (inactive)
same,GI50,OVCAR-3,> 100 µM (inactive)
same,GI50,OVCAR-4,> 100 µM (inactive)
same,GI50,OVCAR-5,> 100 µM (inactive)
same,GI50,OVCAR-8,> 100 µM (inactive)
same,GI50,RPMI-8226,> 100 µM (inactive)
same,GI50,RXF 631,> 100 µM (inactive)
same,GI50,SF-295,> 100 µM (inactive)
same,GI50,SF-539,> 100 µM (inactive)
same,GI50,SK-MEL-28,> 100 µM (inactive)
same,GI50,SK-MEL-2,> 100 µM (inactive)
same,GI50,SK-MEL-5,> 100 µM (inactive)
same,GI50,SK-OV-3,> 100 µM (inactive)
same,GI50,SN12C,> 100 µM (inactive)
same,GI50,SNB-19,> 100 µM (inactive)
same,GI50,SNB-75,> 100 µM (inactive)
same,GI50,SNB-78,> 100 µM (inactive)
same,GI50,SR,> 100 µM (inactive)
same,GI50,SW-620,> 100 µM (inactive)
same,GI50,TK-10,> 100 µM (inactive)
same,GI50,U-251,> 100 µM (inactive)
same,GI50,UACC-257,> 100 µM (inactive)
same,GI50,UACC-62,> 100 µM (inactive)
same,GI50,UO-31,> 100 µM (inactive)
same,GI50,XF498,71.1 µM (inactive)
